Assay results taken from patent US6608082B1, “Treatment of erectile dysfunction using isoquinoline compound melanocortin receptor ligands” (Lion Bioscience AG, priority 1998, dated 2003).

Key:
[1] = system: IL-10; experiment: Increasing levels of IL-10 in mice (plasma ELISA); format: in vivo; conditions: IP, mouse plasma, 90 or 105 minutes
Experimental: Isoquinoline compounds were administered intraperitoneally to mice in doses of 30, 100 or 300 μg/mouse or orally in doses of 300 or 600 μg/mouse. Levels of IL-10 were measured 90 or 105 minutes after administration as indicated. Samples were collected and diluted, when appropriate, as described in Example VI. A 100 μl sample of plasma was assayed by ELISA for IL-10. Briefly, ELISA plates were coated with rat anti-mouse IL-10 monoclonal antibody (Pharmingen; San Diego Calif.). Samples or known concentrations of IL-10 were added to the coated plates and incubated for 2 hr at 37° C. Plates were washed and incubated with biotinylated rat anti-mouse IL-10 (R&D Systems; Minneapolis Minn.) for 1 hr at 37° C. Plates were washed and incubated with streptavidin-HRP 30 min at 37° C., and HRP activity was detected with hydrogen peroxide and TMB using standard immunoassay procedures.

[2] = biological target: T1, MCR-1 (Homo sapiens, UniProt Q01726); experiment: Melanocortin receptor binding assay, competition with 125I-HP 467, HEK 293 cells expressing hMCR-1; conditions: for IC50: inhibition of binding of 125I-HP 467, HEK 293 cells expressing MCR-1, read-out: MC-1 IC50
T1 construct: expressed in transfected cells; host or cells: HEK 293
Procedure, shortened: (§1)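 Intact-cell competition binding, 2.5 hr at 37 °C, in PBS/10% calf serum/1 mM CaCl2; hMCR-4 cells at 4×10^3 per tube, hMCR-1 cells at 2×10^4 per tube. Filtration on BSA/CaCl2-soaked GF/B, cold 50 mM Tris pH 7.4 washes, scintillation count.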

[3] = system: TNF-α; experiment: Reduction of lipopolysaccharide-induced tumor necrosis factor levels in mice; format: in vivo, BALB/c female mice; conditions: IP, plasma 90 or 105 minutes after LPS, mean ± SEM
Experimental: BALB/c female mice weighing approximately 20 g were placed into a control group and a treated group. Five mg/kg of LPS in 0.9% saline was administered (100 μl to give 100 μg LPS per mouse) by intraperitoneal (IP) injection to all mice. Mice in the treatment group received either 30, 100, 300 or 600 μg of various isoquinoline compounds per mouse in a volume of 100 μl of PBS. Control mice received 100 μl of saline alone. One minute after initial injections all mice received the LPS injection. As a positive control, 100 μg of HP 228 was injected per mouse.
Blood samples were collected from the orbital sinus of treated and control mice 90 minutes or 105 minutes after LPS administration. The plasma was separated by centrifugation at 3000×g for 5 min and stored at −20° C. Samples were thawed and diluted, if TNF-α concentration was greater than 3200 pg/ml, with PBS containing 1% bovine serum albumin, 10% donor horse serum, 1% normal mouse serum, 0.05% TWEEN-20 and 0.05% thimerosal. A 100 μl sample of plasma was assayed by ELISA for TNF-α. Briefly, ELISA plates were coated with hamster anti-mouse TNF-α antibody (Genzyme; Cambridge Mass.). Samples or known concentrations of TNF-α were added to the coated plates and incubated for 2 hr at 37° C. Plates were washed and subsequently incubated with biotinylated rabbit anti-mouse TNG-α for 1 hr at 37° C. Plates were washed and incubated with streptavidin-HRP for 1 hr at 37° C., and HRP activity was detected with hydrogen peroxide and o-phenylenediamine (OPD) using standard immunoassay procedures.
The mean (±SEM) TNF-α level in five mice from each group was determined and the percent reduction in TNF-α levels was calculated.

[4] = biological target: T2, MCR-4 (Homo sapiens, UniProt P32245); experiment: Melanocortin receptor binding assay, competition with 125I-HP 467, HEK 293 cells expressing hMCR-4; conditions: inhibition of binding of 125I-HP 467, HEK 293 cells expressing MCR-4; read-out: MC-4 IC50
T2 construct: expressed in transfected cells; host or cells: HEK 293
Procedure, shortened: as §1

T2 sequence (P32245 whole entry): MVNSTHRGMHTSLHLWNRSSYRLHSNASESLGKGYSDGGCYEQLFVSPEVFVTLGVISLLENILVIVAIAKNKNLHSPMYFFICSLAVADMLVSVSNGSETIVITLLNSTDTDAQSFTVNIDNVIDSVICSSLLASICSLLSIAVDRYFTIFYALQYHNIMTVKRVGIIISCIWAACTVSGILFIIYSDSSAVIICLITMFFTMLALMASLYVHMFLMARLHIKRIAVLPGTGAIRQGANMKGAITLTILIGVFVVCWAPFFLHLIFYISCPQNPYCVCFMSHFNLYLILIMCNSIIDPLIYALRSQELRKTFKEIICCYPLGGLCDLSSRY
T1 sequence (Q01726 whole entry): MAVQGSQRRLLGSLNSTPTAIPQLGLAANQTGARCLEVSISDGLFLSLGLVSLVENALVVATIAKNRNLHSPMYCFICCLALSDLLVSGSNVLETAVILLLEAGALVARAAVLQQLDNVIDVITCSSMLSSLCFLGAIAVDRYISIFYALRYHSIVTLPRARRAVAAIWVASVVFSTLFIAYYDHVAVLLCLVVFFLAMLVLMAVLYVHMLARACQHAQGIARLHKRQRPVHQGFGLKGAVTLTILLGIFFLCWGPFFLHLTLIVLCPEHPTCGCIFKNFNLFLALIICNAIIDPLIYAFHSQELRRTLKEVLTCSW

Structure (SMILES) | IC50 [2] [µM] | IC50 [4] [µM] | also measured
CNC(CN)CCCCN1Cc2ccccc2C(CNC2CCCCC2)C1c1ccc(OC)c(S(=O)(=O)O)c1 (stereo not shown) [TRG 2405-268] | – | – | % IL-10 Induction, IP 30 ([1]; 30 μg per mouse): −3 ± 16%; % IL-10 Induction, IP 300 ([1]; 300 μg per mouse): 6 ± 17%; % Disp. of 125I-HP 467 (first of duplicate) ([2]; 10 μM isoquinoline compound, HEK 293 cells expressing MCR-1, duplicate 1): 0%; % Disp. of 125I-HP 467 (second of duplicate) ([2]; 10 μM isoquinoline compound, HEK 293 cells expressing MCR-1, duplicate 2): 3.6%; % TNF-α Inhibtion, IP 30 ([3]; 30 μg per mouse): −58 ± 18%; % TNF-α Inhibtion, IP 300 ([3]; 300 μg per mouse): 9 ± 23%
COc1ccc(CCNCC2c3ccccc3CN(CCCCC(CN)NCc3ccc(Br)cc3)C2c2cc(C(F)(F)F)cc(C(F)(F)F)c2)cc1 (stereo not shown) [TRG 2421-13] | 4.41 | 8.11 | –
COc1ccc(CCNCC2c3ccccc3CN(CCCCC(CN)NCc3ccc(OC)cc3)C2c2cc(C(F)(F)F)cc(C(F)(F)F)c2)cc1 (stereo not shown) [TRG 2421-14] | 3.47 | 1.69 | –
COc1ccc(CCNCC2c3ccccc3CN(CCCCC(CN)NCc3ccc(-c4ccccc4)cc3)C2c2cc(C(F)(F)F)cc(C(F)(F)F)c2)cc1 (stereo not shown) [TRG 2421-15] | 7.81 | 7.6 | –
COc1ccc(CCNCC2c3ccccc3CN(CCCCC(CN)NCc3ccccc3)C2c2cc(C(F)(F)F)cc(C(F)(F)F)c2)cc1OC (stereo not shown) [TRG 2421-16] | 2.42 | 0.36 | –
COc1ccc(CCNCC2c3ccccc3CN(CCCCC(CN)NCc3ccc(Br)cc3)C2c2cc(C(F)(F)F)cc(C(F)(F)F)c2)cc1OC (stereo not shown) [TRG 2421-18] | 4.79 | 1.35 | –
COc1ccc(CNC(CN)CCCCN2Cc3ccccc3C(CNCCc3ccc(OC)c(OC)c3)C2c2cc(C(F)(F)F)cc(C(F)(F)F)c2)cc1 (stereo not shown) [TRG 2421-19] | 1.63 | 0.52 | –
COc1ccc(CCNCC2c3ccccc3CN(CCCCC(CN)NCc3ccc(-c4ccccc4)cc3)C2c2cc(C(F)(F)F)cc(C(F)(F)F)c2)cc1OC (stereo not shown) [TRG 2421-20] | 4.22 | 1.97 | –
CCOc1ccc(CCNCC2c3ccccc3CN(CCCCC(CN)NCc3ccccc3)C2c2cc(C(F)(F)F)cc(C(F)(F)F)c2)cc1 (stereo not shown) [TRG 2421-21] | 2.59 | 3.98 | –
CCOc1ccc(CCNCC2c3ccccc3CN(CCCCC(CN)NCc3ccc(C)cc3)C2c2cc(C(F)(F)F)cc(C(F)(F)F)c2)cc1 (stereo not shown) [TRG 2421-22] | 3.02 | 8.22 | –
CCOc1ccc(CCNCC2c3ccccc3CN(CCCCC(CN)NCc3ccc(Br)cc3)C2c2cc(C(F)(F)F)cc(C(F)(F)F)c2)cc1 (stereo not shown) [TRG 2421-23] | 7.44 | 8.22 | –
CCOc1ccc(CCNCC2c3ccccc3CN(CCCCC(CN)NCc3ccc(OC)cc3)C2c2cc(C(F)(F)F)cc(C(F)(F)F)c2)cc1 (stereo not shown) [TRG 2421-24] | 2.35 | 2.26 | –
CCOc1ccc(CCNCC2c3ccccc3CN(CCCCC(CN)NCc3ccc(-c4ccccc4)cc3)C2c2cc(C(F)(F)F)cc(C(F)(F)F)c2)cc1 (stereo not shown) [TRG 2421-25] | 10 | 10.9 | –
NCC(CCCCN1Cc2ccccc2C(CNCCc2ccc(Oc3ccccc3)cc2)C1c1cc(C(F)(F)F)cc(C(F)(F)F)c1)NCc1ccccc1 (stereo not shown) [TRG 2421-26] | 11.4 | 12.9 | –
Cc1ccc(CNC(CN)CCCCN2Cc3ccccc3C(CNCCc3ccc(Oc4ccccc4)cc3)C2c2cc(C(F)(F)F)cc(C(F)(F)F)c2)cc1 (stereo not shown) [TRG 2421-27] | 7.26 | 9.26 | –
COc1ccc(CNC(CN)CCCCN2Cc3ccccc3C(CNCCc3ccc(Oc4ccccc4)cc3)C2c2cc(C(F)(F)F)cc(C(F)(F)F)c2)cc1 (stereo not shown) [TRG 2421-29] | 5.1 | 7.92 | –
NCC(CCCCN1Cc2ccccc2C(CNCCc2ccc(Cl)cc2)C1c1cc(C(F)(F)F)cc(C(F)(F)F)c1)NCc1ccccc1 (stereo not shown) [TRG 2421-31] | 5.9 | 2.77 | –

Structure (SMILES) | IC50 [2] [µM] | IC50 [4] [µM] | also measured
Cc1ccc(CNC(CN)CCCCN2Cc3ccccc3C(CNCCc3ccc(Cl)cc3)C2c2cc(C(F)(F)F)cc(C(F)(F)F)c2)cc1 (stereo not shown) [TRG 2421-32] | 5.77 | 4.15 | –
NCC(CCCCN1Cc2ccccc2C(CNCCc2ccc(Cl)cc2)C1c1cc(C(F)(F)F)cc(C(F)(F)F)c1)NCc1ccc(Br)cc1 (stereo not shown) [TRG 2421-33] | 6.93 | 8.36 | –
COc1ccc(CNC(CN)CCCCN2Cc3ccccc3C(CNCCc3ccc(Cl)cc3)C2c2cc(C(F)(F)F)cc(C(F)(F)F)c2)cc1 (stereo not shown) [TRG 2421-34] | 4.98 | 2.64 | –
COc1cccc(CCNCC2c3ccccc3CN(CCCCC(CN)NCc3ccccc3)C2c2cc(C(F)(F)F)cc(C(F)(F)F)c2)c1 (stereo not shown) [TRG 2421-36] | 3.99 | 0.89 | –
COc1cccc(CCNCC2c3ccccc3CN(CCCCC(CN)NCc3ccc(C)cc3)C2c2cc(C(F)(F)F)cc(C(F)(F)F)c2)c1 (stereo not shown) [TRG 2421-37] | 3.08 | 0.84 | –
COc1cccc(CCNCC2c3ccccc3CN(CCCCC(CN)NCc3ccc(Br)cc3)C2c2cc(C(F)(F)F)cc(C(F)(F)F)c2)c1 (stereo not shown) [TRG 2421-38] | 7.47 | 1.34 | –
COc1ccc(CNC(CN)CCCCN2Cc3ccccc3C(CNCCc3cccc(OC)c3)C2c2cc(C(F)(F)F)cc(C(F)(F)F)c2)cc1 (stereo not shown) [TRG 2421-39] | 3.3 | 1.04 | –
COc1cccc(CCNCC2c3ccccc3CN(CCCCC(CN)NCc3ccc(-c4ccccc4)cc3)C2c2cc(C(F)(F)F)cc(C(F)(F)F)c2)c1 (stereo not shown) [TRG 2421-40] | 12.1 | 3.98 | –
NCC(CCCCN1Cc2ccccc2C(CNCCc2ccccc2)C1c1cccc(C(F)(F)F)c1)NCc1ccccc1 (stereo not shown) [TRG 2421-41] | 2.51 | 1.72 | –
COc1ccc(CNC(CN)CCCCN2Cc3ccccc3C(CNCCc3ccccc3)C2c2cccc(C(F)(F)F)c2)cc1 (stereo not shown) [TRG 2421-42] | 2.15 | 1.72 | –
COc1ccc(CCNCC2c3ccccc3CN(CCCCC(CN)NCc3ccccc3)C2c2cccc(C(F)(F)F)c2)cc1 (stereo not shown) [TRG 2421-43] | 2.15 | 1.76 | –
COc1ccc(CCNCC2c3ccccc3CN(CCCCC(CN)NCc3ccc(OC)cc3)C2c2cccc(C(F)(F)F)c2)cc1 (stereo not shown) [TRG 2421-44] | 1.54 | 1.42 | –
CCOc1ccc(CCNCC2c3ccccc3CN(CCCCC(CN)NCc3ccccc3)C2c2cccc(C(F)(F)F)c2)cc1 (stereo not shown) [TRG 2421-45] | 0.98 | 2.73 | –
CCOc1ccc(CCNCC2c3ccccc3CN(CCCCC(CN)NCc3ccc(OC)cc3)C2c2cccc(C(F)(F)F)c2)cc1 (stereo not shown) [TRG 2421-46] | 1.58 | 3.61 | –
COc1cccc(CCNCC2c3ccccc3CN(CCCCC(CN)NCc3ccccc3)C2c2cccc(C(F)(F)F)c2)c1 (stereo not shown) [TRG 2421-47] | 2.71 | 1.37 | –
COc1ccc(CNC(CN)CCCCN2Cc3ccccc3C(CNCCc3cccc(OC)c3)C2c2cccc(C(F)(F)F)c2)cc1 (stereo not shown) [TRG 2421-48] | 1.74 | 0.95 | –
